Measured values as given in ChEMBL document CHEMBL4130368, “Thienopyrimidine derivatives exert their anticancer efficacy via apoptosis induction, oxidative stress and mitotic catastrophe” (Eur J Med Chem, 2017).
Active and inactive are the calls of the source. No cut-off for these calls is given here.

How the values were obtained:
2008 [1] = test: Inhibition of colony formation in human OV2008 cells at 1 to 2 uM after 24 hrs by crystal violet dye based assay; format: functional, cell-based
2008 [2] = test: Cell cycle arrest in human OV2008 cells assessed as accumulation at S phase at 1 uM measured after overnight incubation by propidium iodide staining-based flow cytometry (reference value: 10.8%); format: functional
HCT-116 [3] = test: Induction of apoptosis in human HCT116 cells assessed as cell shrinkage at 0.5 to 2 uM measured after overnight incubation by DAPI-staining based microscopy; format: functional
2008 [4] = test: Induction of apoptosis in human OV2008 cells assessed as condensation of nuclei at 0.5 to 2 uM measured after overnight incubation by DAPI-staining based microscopy; format: functional, cell-based
HCT-116 [5] = test: Induction of apoptosis in human HCT116 cells assessed as viable cells at 1 uM measured after overnight incubation by mitotracker red/alexa fluor-488 Annexin V staining-based flow cytometry (reference value: 89%); format: functional; details: read-out: Activity
HCT-116 [6] = test: Induction of apoptosis in human HCT116 cells assessed as necrotic cells at 1 uM measured after overnight incubation by mitotracker red/alexa fluor-488 Annexin V staining-based flow cytometry (reference value: 2.67%); format: functional
HCT-116 [7] = test: Induction of apoptosis in human HCT116 cells assessed as viable cells at 2 uM measured after overnight incubation by mitotracker red/alexa fluor-488 Annexin V staining-based flow cytometry (reference value: 89%); format: functional; details: read-out: Activity
HCT-116 [8] = test: Induction of apoptosis in human HCT116 cells assessed as necrotic cells at 2 uM measured after overnight incubation by mitotracker red/alexa fluor-488 Annexin V staining-based flow cytometry (reference value: 2.67%); format: functional
2008 [9] = test: Induction of apoptosis in human OV2008 cells assessed as necrotic cells at 1 uM measured after overnight incubation by mitotracker red/alexa fluor-488 Annexin V staining-based flow cytometry (reference value: 6.31%); format: functional

For `COc1ccc(-c2nc(O)c3c4c(sc3n2)CCCC4)cc1`, the inhibition 2008 [1] was “Dose-dependent effect”, the Activity 2008 [2] was 20.4% and the Activity (HCT-116 [3]) was “Active”. For the same compound, the Activity 2008 [4] was “Active”, the viability at 1 µM (HCT-116 [5]) was 87% and the Activity (HCT-116 [6]) was 1.48%. For the same compound, the viability at 2 µM (HCT-116 [7]) was 71.1%, the Activity (HCT-116 [8]) was 3.04% and the Activity 2008 [9] was 4.31%.
